In US10076519B2 (CYTOKINETICS, INC., priority 2010, dated 2018):

System: rabbit skeletal myofibrils (fast skeletal myofibrils)
Experiment: Activation of fast skeletal myofibrils (PUMA assay, PK/LDH-coupled ATPase at pCa25)
Type: biochemical
Outline: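 Detergent-washed rabbit psoas myofibrils (~90% fast fibres, calcium-regulated) assayed at calcium giving 25% of maximal ATPase rate (pCa25). ADP turnover coupled via pyruvate kinase/lactate dehydrogenase to NADH oxidation, read at 340 nm. Buffer 12 mM PIPES, 2 mM MgCl2, 1 mM DTT, pH 6.8; AC1.4 values derived.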

[1] = AC1.4 determined according to the procedure of Example 39, reported as class symbols
[2] = median AC1.4 class, procedure of Example 39
[3] = median AC1.4 reported as class, procedure of Example 39

Compound	Mean AC1.4 [1]	further results
Cc1cc(NCC(C)(C)c2ccc(F)cc2)nnc1-c1cccc(C#N)c1 [3-(6-{[2-(4-fluorophenyl)-2-methylpropyl]amino}-4-methylpyridazin-3-yl)benzenecarbonitrile]	B (B=1-10 uM)	
Cc1cc(-c2cccc(C(N)=O)c2)nnc1NCC(C)(C)c1ccc(F)cc1 [3-(6-{[2-(4-fluorophenyl)-2-methylpropyl]amino}-5-methylpyridazin-3-yl)benzamide]	B (B=1-10 uM)	
CC(C)(CNc1ccc(-c2noc(C(N)=O)n2)nn1)c1ccc(F)cc1 [3-(6-{[2-(4-fluorophenyl)-2-methylpropyl]amino}pyridazin-3-yl)-1,2,4-oxadiazole-5-carboxamide]	C (C=10-20 uM)	
CC(C)(CNc1ccc(-c2cccc(C(N)=O)c2)nn1)c1ccc(F)cc1 [3-(6-{[2-(4-fluorophenyl)-2-methylpropyl]amino}pyridazin-3-yl)benzamide]	A (A=<1 uM)	
CC(C)(CNc1ccc(-c2cccc(C(=O)N3CCOCC3)c2)nn1)c1ccc(F)cc1 [3-(6-{[2-(4-fluorophenyl)-2-methylpropyl]amino}pyridazin-3-yl)phenyl morpholin-4-yl ketone]	B (B=1-10 uM)	
CC(C)(CNc1ccc(-c2cccc(C(=O)c3ccccc3)c2)nn1)c1ccc(F)cc1 [3-(6-{[2-(4-fluorophenyl)-2-methylpropyl]amino}pyridazin-3-yl)phenyl phenyl ketone]	D (D=>20 uM)	
CC(C)(CNc1ccc(-c2cccc(C(=O)N3CCNCC3)c2)nn1)c1ccc(F)cc1 [3-(6-{[2-(4-fluorophenyl)-2-methylpropyl]amino}pyridazin-3-yl)phenyl piperazinyl ketone]	B (B=1-10 uM)	
CC(C)(CNc1ccc(-c2cccc(C(=O)N3CCCCC3)c2)nn1)c1ccc(F)cc1 [3-(6-{[2-(4-fluorophenyl)-2-methylpropyl]amino}pyridazin-3-yl)phenyl piperidyl ketone]	B (B=1-10 uM)	
CC(C)(CNc1ccc(-c2cccnc2O)nn1)c1ccc(F)cc1 [3-(6-{[2-(4-fluorophenyl)-2-methylpropyl]amino}pyridazin-3-yl)pyridin-2-ol]	B (B=1-10 uM)	
N#Cc1cccc(-c2ccc(NCC3(c4ccccn4)CCC3)nn2)c1 [3-(6-{[(2-pyridylcyclobutyl)methyl]ami-no}pyridazin-3-yl)benzenecarbonitrile]		Mean AC1.4 [2]: B (B=1-10 uM)
CN(CC1(c2ccccn2)CCC1)c1ccc(-c2cccc(C(N)=O)c2)nn1 [3-(6-{methyl[(2-pyridylcyclobutyl)methyl]ami-no}pyridazin-3-yl)benzamide]		Mean AC1.4 [2]: D (D=>20 uM)
CC1(C)CN(c2ccc(-c3cccc(C(N)=O)c3)nn2)c2ccccc21 [3-[6-(3,3-dimethylindolinyl)pyridazin-3-yl]benzamide]	D (D=>20 uM)	
NC(=O)c1cccc(-c2ccc(NC(=O)c3ccccc3)nn2)c1 [3-[6-(phenylcarbonylamino)pyridazin-3-yl]benzamide]		Mean AC1.4 [2]: D (D=>20 uM)
CC(C)(Nc1ccc(-c2cc(C(N)=O)ccc2F)nn1)c1cccc(OC(F)F)n1 [3-[6-({1-[6-(difluoromethoxy)(2-pyridyl)]-isopropyl}amino)pyridazin-3-yl]-4-fluorobenzamide]		Mean AC1.4 [2]: A (A=<1 uM)
CC(C)(Nc1ccc(-c2cccc(C(N)=O)c2)nn1)c1cccc(OC(F)F)n1 [3-[6-({1-[6-(difluoromethoxy)(2-pyridyl)]-isopropyl}amino)pyridazin-3-yl]benzamide]		Mean AC1.4 [2]: B (B=1-10 uM)
NC(=O)c1cccc(-c2ccc(NC[C@]3(c4ncccc4F)C[C@H](F)C3)nn2)c1O [3-[6-({[3-fluoro-1-(3-fluoro(2-pyridyl))cyclobutyl]methyl}ami-no)pyridazin-3-yl]-2-hydroxybenzamide]		Mean AC1.4 [3]: A (A=<1 uM)
N#Cc1cccc(-c2ccc(NC[C@]3(c4ncccc4F)C[C@H](F)C3)nn2)c1O [3-[6-({[3-fluoro-1-(3-fluoro(2-pyridyl))cyclobutyl]methyl}ami-no)pyridazin-3-yl]-2-hydroxybenzenecarbonitrile]		Mean AC1.4 [3]: B (B=1-10 uM)
O=C(O)c1cccc(-c2ccc(NC[C@]3(c4ncccc4F)C[C@H](F)C3)nn2)c1O [3-[6-({[3-fluoro-1-(3-fluoro(2-pyridyl))cyclobutyl]methyl}ami-no)pyridazin-3-yl]-2-hydroxybenzoic acid]		Mean AC1.4 [3]: C (C=10-20 uM)
COc1c(C(N)=O)cccc1-c1ccc(NC[C@]2(c3ncccc3F)C[C@H](F)C2)nn1 [3-[6-({[3-fluoro-1-(3-fluoro(2-pyridyl))cyclobutyl]methyl}ami-no)pyridazin-3-yl]-2-methoxybenzamide]		Mean AC1.4 [3]: D (D=>20 uM)
COc1c(C#N)cccc1-c1ccc(NC[C@]2(c3ncccc3F)C[C@H](F)C2)nn1 [3-[6-({[3-fluoro-1-(3-fluoro(2-pyridyl))cyclobutyl]methyl}ami-no)pyridazin-3-yl]-2-methoxybenzenecarbonitrile]		Mean AC1.4 [3]: C (C=10-20 uM)
NC(=O)c1ccc(O)c(-c2ccc(NC[C@]3(c4ncccc4F)C[C@H](F)C3)nn2)c1 [3-[6-({[3-fluoro-1-(3-fluoro(2-pyridyl))cyclobutyl]methyl}ami-no)pyridazin-3-yl]-4-hydroxybenzamide]		Mean AC1.4 [2]: B (B=1-10 uM)

Further lines, with some results ahead:

Mean AC1.4 [1]	Compound	further results
C (C=10-20 uM)	Cc1cc(-c2cccc(C#N)c2)nnc1NCC(C)(C)c1ccc(F)cc1 [3-(6-{[2-(4-fluorophenyl)-2-methylpropyl]amino}-5-methylpyridazin-3-yl)benzenecarbonitrile]	
B (B=1-10 uM)	CC(C)(CNc1ccc(-c2cccc(C#N)c2)nn1)c1ccc(F)cc1 [3-(6-{[2-(4-fluorophenyl)-2-methylpropyl]amino}pyridazin-3-yl)benzenecarbonitrile]	
C (C=10-20 uM)	CC(C)(CNc1ccc(-c2cccc(C(N)=O)c2)nn1)c1ccc(F)cn1 [3-(6-{[2-(5-fluoro(2-pyridyl))-2-methylpropyl]amino}pyridazin-3-yl)benzamide]	
D (D=>20 uM)	NC(=O)c1cccc(-c2ccc(NCC3(C(N)=O)CCC3)nn2)c1 [3-(6-{[(carbamoylcyclo-butyl)methyl]amino}pyridazin-3-yl)benzamide]	
D (D=>20 uM)	NC(=O)c1cccc(-c2ccc(NC3Cc4ccccc4C3)nn2)c1 [3-[6-(indan-2-ylamino)pyridazin-3-yl]benzamide]	
D (D=>20 uM)	CC(=O)N1CC(CNc2ccc(-c3cccc(C(N)=O)c3)nn2)(c2ncccc2F)C1 [3-[6-({[1-acetyl-3-(3-fluoro(2-pyridyl))azetidin-3-yl]methyl}amino)pyridazin-3-yl]benzamide]	
D (D=>20 uM)	CS(=O)(=O)N1CC(CNc2ccc(-c3cccc(C(N)=O)c3)nn2)(c2ncccc2F)C1 [3-[6-({[3-(3-fluoro(2-pyridyl))-1-(methylsulfonyl)azetidin-3-yl]methyl}amino)pyridazin-3-yl]benzamide]	
D (D=>20 uM)	NC(=O)c1cccc(-c2ccc(NCC3(c4ncccc4F)CNC3)nn2)c1 [3-[6-({[3-(3-fluoro-2-pyridyl)azetidin-3-yl]methyl}amino)pyridazin-3-yl]benzamide]	
D (D=>20 uM)	NC(=O)c1cccc(-c2ccc(NCC3(c4ccc(F)cc4)COC3)nn2)c1 [3-[6-({[3-(4-fluorophenyl)oxetan-3-yl]methyl}amino)pyridazin-3-yl]benzamide]	
